From ChEMBL document CHEMBL1201862, “PubChem BioAssay data set” (2004)
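96-well plates; 48 h exposure; 5 concentrations. Endpoints by linear interpolation between flanking doses. Not reached: highest tested concentration assigned. GI50 = concentration required for 50% inhibition of growth.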 The source made the active and inactive calls. Cut-off read from the data, not from the text of the source: active = GI50 up to about 1.1 µM and inactive = higher.

Tests used:
Test in all cases: DTP human tumour cell line panel, 48 h
HCT-15 = system: HCT-15
CAKI-1 = system: CAKI-1
M14 = system: M14
SW-620 = system: SW-620
OVCAR-4 = system: OVCAR-4
SF-295 = system: SF-295
SK-MEL-28 = system: SK-MEL-28
U-251 = system: U-251
NCI-H522 = system: NCI-H522
SF-268 = system: SF-268
NCI-H460 = system: NCI-H460
EKVX = system: EKVX
HOP-62 = system: HOP-62
HCC 2998 = system: HCC 2998
ACHN = system: ACHN
SK-OV-3 = system: SK-OV-3
COLO 205 = system: COLO 205

Row | SMILES | GI50 (HCT-15) | GI50 (CAKI-1) | GI50 (M14) | GI50 (SW-620) | GI50 (OVCAR-4) | GI50 (SF-295) | GI50 (SK-MEL-28) | GI50 (U-251) | GI50 (NCI-H522) | GI50 (SF-268) | GI50 (NCI-H460) | GI50 (EKVX) | GI50 (HOP-62) | GI50 (HCC 2998) | GI50 (ACHN) | GI50 (SK-OV-3) | GI50 (COLO 205)
1 | CCc1ccccc1N1C(=O)C(=O)C(c2nc3ccccc3s2)C(=O)C1=O | > 100 µM | > 100 µM (inactive) | 59 µM (inactive) | 83.8 µM (inactive) | 79.8 µM (inactive) | 83 µM (inactive) | > 100 µM (inactive) | 36.1 µM (inactive) | > 100 µM (inactive) | > 100 µM (inactive) | > 100 µM (inactive) | > 100 µM (inactive) | > 100 µM (inactive) | > 100 µM (inactive) | > 100 µM (inactive) | > 100 µM (inactive) | 
2 | OCCc1cnco1 |  |  | > 100 µM (inactive) | > 100 µM (inactive) | > 100 µM (inactive) | > 100 µM (inactive) | > 100 µM (inactive) | > 100 µM (inactive) | > 100 µM (inactive) | > 100 µM (inactive) | > 100 µM (inactive) | > 100 µM (inactive) | > 100 µM (inactive) | > 100 µM (inactive) |  | > 100 µM (inactive) | > 100 µM (inactive)
3 | COc1cccc(NC(=O)CC(=O)N2N=C(N(CCC#N)c3ccccc3C)CC2c2ccccc2)c1 (centres undefined) | > 100 µM | > 100 µM (inactive) | > 100 µM (inactive) | > 100 µM (inactive) | > 100 µM (inactive) | > 100 µM (inactive) | > 100 µM (inactive) | > 100 µM (inactive) | > 100 µM (inactive) | > 100 µM (inactive) | > 100 µM (inactive) | > 100 µM (inactive) | > 100 µM (inactive) | > 100 µM (inactive) | > 100 µM (inactive) | > 100 µM (inactive) | > 100 µM (inactive)
4 | N#CC(C(=O)CCCC(=O)Nc1ccc(Cl)cc1Cl)c1ccc(Cl)cc1 (centres undefined) | > 100 µM | > 100 µM (inactive) | > 100 µM (inactive) | > 100 µM (inactive) | > 100 µM (inactive) | > 100 µM (inactive) | > 100 µM (inactive) |  | > 100 µM (inactive) | > 100 µM (inactive) | > 100 µM (inactive) |  | > 100 µM (inactive) | > 100 µM (inactive) | > 100 µM (inactive) | > 100 µM (inactive) | > 100 µM (inactive)
5 | Nc1ccn(CCOC(=O)c2ccccc2)c(=O)n1 | > 100 µM | > 100 µM (inactive) | > 100 µM (inactive) | > 100 µM (inactive) | > 100 µM (inactive) | > 100 µM (inactive) | > 100 µM (inactive) | > 100 µM (inactive) | > 100 µM (inactive) | > 100 µM (inactive) | > 100 µM (inactive) | > 100 µM (inactive) | > 100 µM (inactive) |  | > 100 µM (inactive) | > 100 µM (inactive) | > 100 µM (inactive)
6 | CCCCOCc1cc(CN2CCN(C)CC2)c(O)c2ncccc12 | 2.77 µM | 24.6 µM (inactive) | 12.5 µM (inactive) | 9.89 µM (inactive) | 21.5 µM (inactive) | 4.17 µM (inactive) | 31.4 µM (inactive) | 12.5 µM (inactive) | 26.4 µM (inactive) | 16.2 µM (inactive) | 7.46 µM (inactive) | 23.5 µM (inactive) | 14.4 µM (inactive) | 24.3 µM (inactive) | 6.24 µM (inactive) | 67.6 µM (inactive) | 29.6 µM (inactive)
7 | N#C/C(=C\c1ccccc1O)C(N)=O | 87.7 µM | 54.8 µM (inactive) | > 100 µM (inactive) | 76.2 µM (inactive) | > 100 µM (inactive) | > 100 µM (inactive) | > 100 µM (inactive) | > 100 µM (inactive) | 21.9 µM (inactive) | 81.7 µM (inactive) | 55.7 µM (inactive) | 59.4 µM (inactive) | > 100 µM (inactive) | > 100 µM (inactive) | 48.9 µM (inactive) | 53.1 µM (inactive) | 61.8 µM (inactive)
8 | O=C(Nc1ccccc1C(=O)O)C(=O)C(C(=O)c1ccccc1-c1ccccc1)C1OC(=O)c2ccccc21 (centres undefined) | 16.5 µM | 36 µM (inactive) | 17.1 µM (inactive) | 27.3 µM (inactive) | 35 µM (inactive) | 25.2 µM (inactive) | 19.4 µM (inactive) | 15.4 µM (inactive) | 16.2 µM (inactive) | 16.8 µM (inactive) | 17.8 µM (inactive) | 23.4 µM (inactive) | 18 µM (inactive) | 16.5 µM (inactive) | 34 µM (inactive) | 30.9 µM (inactive) | 24 µM (inactive)
9 | CN(C)CCNC(=O)c1cccc2nc3cc(Cl)ccc3nc12 | 2.43 µM | 4.59 µM (inactive) | 3 µM (inactive) | 1.06 µM (active) | 2.42 µM (inactive) | 3.25 µM (inactive) | 2.9 µM (inactive) | 2.86 µM (inactive) | 2.92 µM (inactive) |  |  | 4.25 µM (inactive) | 2.14 µM (inactive) | 2.65 µM (inactive) | 1.02 µM (active) | 5.94 µM (inactive) | 1.86 µM (inactive)
10 | CC(=O)N(C)C=C1C(=O)N(C)C(=O)N(C)C1=O | > 100 µM | > 100 µM (inactive) | > 100 µM (inactive) | > 100 µM (inactive) | > 100 µM (inactive) | > 100 µM (inactive) | > 100 µM (inactive) | > 100 µM (inactive) |  |  | > 100 µM (inactive) | > 100 µM (inactive) |  | > 100 µM (inactive) | > 100 µM (inactive) |  | 
11 | COC1(OC)C2(Cl)C(Cl)=C(Cl)C1(Cl)C1C=CC=CC12 (centres undefined) | 54.5 µM | 45.7 µM (inactive) | 57.5 µM (inactive) | 95.9 µM (inactive) | > 100 µM (inactive) | > 100 µM (inactive) | > 100 µM (inactive) | > 100 µM (inactive) | 23.8 µM (inactive) | > 100 µM (inactive) | > 100 µM (inactive) | > 100 µM (inactive) | > 100 µM (inactive) | 65.2 µM (inactive) | > 100 µM (inactive) | > 100 µM (inactive) | 69.8 µM (inactive)
12 | Cn1nc(-c2ccccc2)c(C(=O)/C=C/c2ccc(Cl)cc2)c(N2CCOCC2)c1=O | 2.74 µM | 0.652 µM (active) | 3.98 µM (inactive) | 4.12 µM (inactive) |  | 0.412 µM (active) | 2.58 µM (inactive) | 3.37 µM (inactive) | 2.43 µM (inactive) | 3.48 µM (inactive) | 2.64 µM (inactive) | 8.49 µM (inactive) | 10.5 µM (inactive) |  | 4.42 µM (inactive) | 5.51 µM (inactive) | 1.99 µM (inactive)
13 | CN1C(=O)C2C3C=C4c5ccccc5N(c5ccccc5)C4(C2C1=O)[C@H]1C(=O)N(C)C(=O)[C@@H]31 (some centres undefined) |  |  | > 100 µM (inactive) | > 100 µM (inactive) | > 100 µM (inactive) | > 100 µM (inactive) | > 100 µM (inactive) | > 100 µM (inactive) | > 100 µM (inactive) | > 100 µM (inactive) | > 100 µM (inactive) | > 100 µM (inactive) | > 100 µM (inactive) | > 100 µM (inactive) | > 100 µM (inactive) | > 100 µM (inactive) | > 100 µM (inactive)
14 | CCOC(=O)N1C(c2ccccc2)C=CC(c2ccccc2)N1C(=O)OCC (centres undefined) | > 100 µM | > 100 µM (inactive) |  | > 100 µM (inactive) | > 100 µM (inactive) | > 100 µM (inactive) | > 100 µM (inactive) | > 100 µM (inactive) |  | > 100 µM (inactive) | > 100 µM (inactive) | > 100 µM (inactive) | > 100 µM (inactive) |  | > 100 µM (inactive) |  | > 100 µM (inactive)
15 | CC(C)(C)c1ccnc(/N=C2\N/C(=N\c3cc(C(C)(C)C)ccn3)c3ccccc32)c1 | 24.3 µM | 26.6 µM (inactive) | 32.5 µM (inactive) | 42.7 µM (inactive) | > 100 µM (inactive) | 23.4 µM (inactive) | 24.4 µM (inactive) | 26.1 µM (inactive) | 21.6 µM (inactive) | 16.3 µM (inactive) | 38.7 µM (inactive) | 57.9 µM (inactive) | 31.6 µM (inactive) |  | > 100 µM (inactive) | 26.5 µM (inactive) | > 100 µM (inactive)
16 | [N-]=[N+]=NC(CBr)c1cn([C@H]2C[C@H](O)[C@@H](CO)O2)c(=O)[nH]c1=O (some centres undefined) | > 100 µM | > 100 µM (inactive) | > 100 µM (inactive) | > 100 µM (inactive) |  | > 100 µM (inactive) | > 100 µM (inactive) | > 100 µM (inactive) | > 100 µM (inactive) |  | > 100 µM (inactive) | > 100 µM (inactive) | > 100 µM (inactive) | > 100 µM (inactive) | > 100 µM (inactive) | > 100 µM (inactive) | > 100 µM (inactive)
17 | COc1ccc(C(=O)C(C(=O)C(=O)Nc2nc3ccc(OC)cc3s2)c2ccc(OC)cc2)cc1 (centres undefined) | > 100 µM | > 100 µM (inactive) | > 100 µM (inactive) | > 100 µM (inactive) | > 100 µM (inactive) | > 100 µM (inactive) | > 100 µM (inactive) | > 100 µM (inactive) |  | > 100 µM (inactive) | > 100 µM (inactive) | > 100 µM (inactive) | > 100 µM (inactive) | > 100 µM (inactive) | > 100 µM (inactive) | > 100 µM (inactive) | > 100 µM (inactive)
18 | COc1ccc(OC(C)C(=O)O)c2c(=O)ccccc12 (centres undefined) | > 100 µM |  | > 100 µM (inactive) | > 100 µM (inactive) | > 100 µM (inactive) | > 100 µM (inactive) | > 100 µM (inactive) | > 100 µM (inactive) | > 100 µM (inactive) | > 100 µM (inactive) | > 100 µM (inactive) | > 100 µM (inactive) | > 100 µM (inactive) | > 100 µM (inactive) | > 100 µM (inactive) | > 100 µM (inactive) | > 100 µM (inactive)
